Assay results taken from patent US10544125B2, “Process for preparing an anti-cancer agent, 1-((4-(4-fluoro-2-methyl-1H-indol-5-yloxy)-6-methoxyquinolin-7-yloxy)methyl)cyclopropanamine, its crystalline form and its salts” (Advenchen Pharmaceuticals, LLC, priority 2015, dated 2020).
≈ marks a conversion by molar mass, not a printed value. Structures can show the parent of a compound that is named as a salt.

Experiments:
[1] = Conventional water solubility test; type: physicochemical
Excerpt: Conventional water solubility test has been conducted to give the following results: […]

Ishikawa (endometrial) = test: In vitro MTT (proliferation) assay; type: cell-based, human; conditions: Ishikawa cancer cell line
Experimental: (§1) In vitro MTT (proliferation) assay was performed with compound from above examples to give following inhibition results: […]

laser-induced CNV = test: Mouse model of laser-induced choroidal neovascularization (CNV); type: in vivo, C57 BL/6 mice; conditions: for reduction in average size of laser-induced CNV: C57 BL/6 mice, day -1 to day 10, FIG. 18
Experimental: A mouse model of laser-induced choroidal neovascularization (CNV)
(1) Experiments were performed in C57 BL/6 mice at 10 to 12 weeks of age. Laser CNV was induced with a 532 nm diode laser mounted on a slit lamp, using […], 100 ms duration and 100 mW laser energy. Each eye received 4 laser burns. Stock solution of AL3818-H1 was made by dissolving the compound in water to 25 mg/ml concentration, and further diluted to working solution of either 250 or 25 μg/ml in water. Mice were orally gavaged at dosage of 2.5 or 0.25 mg/kg body weight, in volume of 200 μl per 20 gram of body weight, once every day starting at one day before laser treatment until 10 days afterwards. Control group mice will receive gavage with water which is used to dissolve the compound. By the end of the experiment, mice were subjected to fluorescence angiography to exclude the spots with hemorrhage and other mechanic injuries caused by the procedures. Mice were sacrificed and CNV size was measured by immunostaining of RPE/choroid flat mount co-stained with FITC-conjugated isolectin B4 and anti-ICAM2 antibody. For groups of control, 0.25 mg/kg and 2.5 mg/kg, we examined 43, 44 and 49 eyes on RPE/choroid flat mount. After immunostaining, images were taken on a Zeiss fluorescence microscope. CNV size was measured in Image J software. […] (2) The potential synergistic or additive effects between AL3818-M and anti-VEGF antibody was also studied. Immediately after laser burn, mice were treated with a monoclonal VEGF neutralizing antibody from R&D Systems (mAb AF564) at 1 μg dosage by intravitreal injection. We had 4 experimental groups: control (treated with water), AL3818-M, anti-VEGF, and AL3818-M+anti-VEGF. A total of 75 laser spots were analyzed. Mice in control or AL3818-M alone group received the intravitreal injection of saline in the same 2 μl volume.

HCT1 16 (colon) = test: In vitro MTT (proliferation) assay; type: cell-based; conditions: HCT1 16 cancer cell line
Experimental: as §1

PC-3 (prostate) = test: In vitro MTT (proliferation) assay; type: cell-based; conditions: PC-3 cancer cell line
Experimental: as §1

BEL7404 (liver) = test: In vitro MTT (proliferation) assay; type: cell-based; conditions: BEL7404 cancer cell line
Experimental: as §1

MKN45 (gastric) = test: In vitro MTT (proliferation) assay; type: cell-based; conditions: MKN45 cancer cell line
Experimental: as §1

SW579 (thyroid) = test: In vitro MTT (proliferation) assay; type: cell-based; conditions: SW579 cancer cell line
Experimental: as §1

PANC-1 (pancreatic) = test: In vitro MTT (proliferation) assay; type: cell-based; conditions: PANC-1 cancer cell line
Experimental: as §1

Hela (cervical) = test: In vitro MTT (proliferation) assay; type: cell-based; conditions: Hela cancer cell line
Experimental: as §1

NC1-H157 (lung) = test: In vitro MTT (proliferation) assay; type: cell-based; conditions: NC1-H157 cancer cell line
Experimental: as §1

Saos-2 (sarcoma) = test: In vitro MTT (proliferation) assay; type: cell-based; conditions: Saos-2 cancer cell line
Experimental: as §1

MDA-MB-231 (breast) = test: In vitro MTT (proliferation) assay; type: cell-based; conditions: MDA-MB-231 cancer cell line
Experimental: as §1

SKOV3 (ovarian) = test: In vitro MTT (proliferation) assay; type: cell-based; conditions: SKOV3 cancer cell line
Experimental: as §1

| Compound | water solubility [1] [µg/mL] | IC50 (PC-3 (prostate)) [µM] | IC50 (BEL7404 (liver)) [µM] | IC50 (MKN45 (gastric)) [µM] | IC50 (SW579 (thyroid)) [µM] | IC50 (NC1-H157 (lung)) [µM] | IC50 (HCT1 16 (colon); MTT (proliferation) assay) [µM] | IC50 (PANC-1 (pancreatic); MTT (proliferation) assay) [µM] | IC50 (Hela (cervical)) [µM] | IC50 (Saos-2 (sarcoma); MTT (proliferation) assay) [µM] | IC50 (MDA-MB-231 (breast); MTT (proliferation) assay) [µM] | IC50 (SKOV3 (ovarian); MTT (proliferation) assay) [µM] | solubility [1] [µg/mL] | IC50 (Ishikawa (endometrial)) [µM] | other results |
| --- | --- | --- | --- | --- | --- | --- | --- | --- | --- | --- | --- | --- | --- | --- | --- |
| COc1cc2c(Oc3ccc4[nH]c(C)cc4c3F)ccnc2cc1OCC1(N)CC1 [AL3818-H1, 1-((4-(4-Fluoro-2-methyl-1H-indol-5-yloxy)-6-methoxy-quinolin-7-yloxy)-methyl)cyclopropanamine Bishydrochloride Acid Salt] | 6000 | 5.53 | 2.75 | 1.77 | 2.33 | 7.18 |  |  |  |  |  |  |  | 5.67 | reduction in average size of laser-induced CNV (laser-induced CNV; oral gavage 0.25 mg/kg body weight once daily): ~70%; reduction in average size of laser-induced CNV (laser-induced CNV; oral gavage 2.5 mg/kg body weight once daily): ~70%; IC50 (HCT1 16 (colon); Homo sapiens, HCT-116, MTT (proliferation) assay): 3.45 µM; IC50 (PANC-1 (pancreatic); Homo sapiens, PANC-1, MTT (proliferation) assay): 1.58 µM; IC50 (Hela (cervical); Homo sapiens, HeLa): 3.7 µM; IC50 (Saos-2 (sarcoma); Homo sapiens, SAOS-2, MTT (proliferation) assay): 4.68 µM; IC50 (MDA-MB-231 (breast); Homo sapiens, MDA-MB-231, MTT (proliferation) assay): 10.2 µM; IC50 (SKOV3 (ovarian); Homo sapiens, SK-OV-3, MTT (proliferation) assay): 5.34 µM |
| COc1cc2c(Oc3ccc4[nH]c(C)cc4c3F)ccnc2cc1OCC1(N)CC1.Cl.Cl.O [AL3818-H2, 1-((4-(4-Fluoro-2-methyl-1H-indol-5-yloxy)-6-methoxy-quinolin-7-yloxy)methyl)cyclopropanamine bishydrochloridehydrate Acid Salt] | 7000 | 3.88 | 1.74 | 3.9 | 1.29 | 2.29 | 3.34 | 1.55 | 4.07 | 4.98 | 5.71 | 5.7 |  | 1.56 |  |
| COc1cc2c(Oc3ccc4[nH]c(C)cc4c3F)ccnc2cc1OCC1(N)CC1.O=C(O)/C=C\C(=O)O.O=C(O)/C=C\C(=O)O [AL3818-M, 1-((4-(4-Fluoro-2-methyl-1H-indol-5-yloxy)-6-methoxy-quinolin-7-yloxy)-methyl)cyclopropanamine Bismaleic Acid Salt] |  | 3.62 | 1.15 | 2.65 | 1.15 | 2.02 | 4.62 | 1.15 | 3.94 | 5.49 | 5.37 | 6.56 | 500 | 1.34 | reduction in laser CNV as compared to the control group (laser-induced CNV; 0.15 mg/kg together with 1 μg anti-VEGF antibody (mAb AF564) intravitreal, P<0.01, FIG. 19): ~30% |

Further lines, with some results ahead:

| water solubility [1] [µg/mL] | IC50 (PC-3 (prostate)) [µM] | IC50 (BEL7404 (liver)) [µM] | IC50 (MKN45 (gastric)) [µM] | IC50 (SW579 (thyroid)) [µM] | IC50 (NC1-H157 (lung)) [µM] | IC50 (HCT1 16 (colon); MTT (proliferation) assay) [µM] | IC50 (PANC-1 (pancreatic); MTT (proliferation) assay) [µM] | IC50 (Hela (cervical)) [µM] | IC50 (Saos-2 (sarcoma); MTT (proliferation) assay) [µM] | IC50 (MDA-MB-231 (breast); MTT (proliferation) assay) [µM] | IC50 (SKOV3 (ovarian); MTT (proliferation) assay) [µM] | solubility [1] [µg/mL] | Compound | IC50 (Ishikawa (endometrial)) [µM] | other results |
| --- | --- | --- | --- | --- | --- | --- | --- | --- | --- | --- | --- | --- | --- | --- | --- |
| 20 (≈ 49.1 µM) | 5.11 | 0.93 | 3.11 | 1 | 1.83 | 3.25 | 1.34 | 3.23 | 5.13 | 5.56 | 5.97 |  | COc1cc2c(Oc3ccc4[nH]c(C)cc4c3F)ccnc2cc1OCC1(N)CC1 [AL3818-F, 1-((4-(4-Fluoro-2-methyl-1H-indol-5-yloxy)-6-methoxyquinolin-7-yloxy)methyl)cyclopropanamine] | 1.04 |  |
|  | 4.41 | 1.43 | 4.16 | 2.61 | 2.28 | 3.94 | 1.24 | 4.66 | 5.68 | 6.1 | 7.6 | 100 | COc1cc2c(Oc3ccc4[nH]c(C)cc4c3F)ccnc2cc1OCC1(N)CC1.O=C(O)CCC(=O)O [AL3818-S, 1-((4-(4-Fluoro-2-methyl-1H-indol-5-yloxy)-6-methoxy-quinolin-7-yloxy)methyl)cyclopropanamine Succinic Acid Salt] | 1.32 |  |
